According to the supplement of paper PMC13380429:

Tests used:
U2OS [1] = experiment: cell viability relative to DMSO; higher = less toxic; settings: 72 h
Vero E6 [2] = experiment: as above; settings: 72 h
Caco-2 [3] = experiment: as above; settings: 72 h
HepG2 [4] = experiment: as above; settings: 72 h
[5] = tested on: A549-ACE2 infected with SARS-CoV-2; experiment: morphology score (similarity to uninfected cells); higher = more like uninfected cells; settings: 24 h
[6] = tested on: A549-ACE2 infected with SARS-CoV-2; experiment: cell count relative to DMSO; higher = less toxic; settings: 24 h
A549-ACE2 = experiment: drug-induced phospholipidosis relative to tamoxifen; higher = more phospholipidosis
[7] = tested on: A549-ACE2 infected with SARS-CoV-2; experiment: SARS-CoV-2 infection rate relative to DMSO; higher = more infection; settings: 24 h
U2OS [8] = experiment: drug sensitivity score (DSS) for viability; higher = more toxic; extreme values may be limits of the assay; settings: 72 h
Vero E6 [9] = experiment: as above; settings: 72 h
Caco-2 [10] = experiment: as above; settings: 72 h
HepG2 [11] = experiment: as above; settings: 72 h
U2OS [12] = experiment: relative viability EC50 (midpoint between 100% and the lowest measured viability); higher = less toxic; settings: 72 h
Vero E6 [13] = experiment: as above; settings: 72 h
Caco-2 [14] = experiment: as above; settings: 72 h
HepG2 [15] = experiment: as above; settings: 72 h
Calu-3 [16] = experiment: cell viability relative to DMSO; higher = less toxic; settings: 72 h
Calu-3 [17] = experiment: drug sensitivity score (DSS) for viability; higher = more toxic; extreme values may be limits of the assay; settings: 72 h
Calu-3 [18] = experiment: relative viability EC50 (midpoint between 100% and the lowest measured viability); higher = less toxic; settings: 72 h

O=Nc1ccc(O)c2ncccc12 [NSC-3852]
Settings | SARS-CoV-2 infection rate, [7] [%] | cell count, [6] [%] | cell viability, Caco-2 [3] [%] | cell viability, HepG2 [4] [%] | cell viability, U2OS [1] [%] | cell viability, Vero E6 [2] [%] | morphology score, [5]
1 nM | – | – | 86.2 | 103 | 93.5 | 99.8 | –
10 nM | – | – | 101 | 89.6 | 99.5 | 102 | –
100 nM | – | – | 98.5 | 101 | 96.2 | 98.4 | –
0.3 µM | 106 | 97 | – | – | – | – | -0.15
1000 nM | – | – | 81.6 | 77.7 | 70.2 | 71.5 | –
3 µM | 96 | 76 | – | – | – | – | -0.09
10000 nM | – | – | 9.2 | 33 | 7.2 | 30.1 | –
10 µM | 48 | 63 | – | – | – | – | 0.41
30 µM | 14 | 41 | – | – | – | – | 0.64

drug-induced phospholipidosis [%], A549-ACE2
Settings | 0.3 µM | 0.833333 µM | 3.33333 µM | 6.66667 µM | 10 µM
24 h | 0.34 | -0.2 | 2.51 | 14.6 | 10.9
48 h | 3.9 | 1.44 | – | – | –
72 h | 3.53 | 1.53 | – | – | –

Settings | drug sensitivity score | relative viability EC50 [nM]
Caco-2 [10] | 8 | –
Caco-2 [14] | – | 1730
HepG2 [11] | 6.9 | –
HepG2 [15] | – | 1320
U2OS [8] | 9.3 | –
U2OS [12] | – | 1370
Vero E6 [9] | 7.5 | –
Vero E6 [13] | – | 1180

CC(C)C[C@H](NC(=O)[C@H](CCc1ccccc1)NC(=O)CN1CCOCC1)C(=O)N[C@@H](Cc1ccccc1)C(=O)N[C@@H](CC(C)C)C(=O)[C@@]1(C)CO1 [carfilzomib]
Settings | SARS-CoV-2 infection rate, [7] [%] | cell count, [6] [%] | cell viability, Caco-2 [3] [%] | cell viability, Calu-3 [16] [%] | cell viability, HepG2 [4] [%] | cell viability, U2OS [1] [%] | cell viability, Vero E6 [2] [%] | morphology score, [5]
1 nM | – | – | 91.9 | 104 | 94.6 | 96 | 100 | –
10 nM | – | – | 50.8 | 91.2 | 68.8 | 76.7 | 97.6 | –
100 nM | – | – | 8.6 | 5.8 | 9 | 0.4 | 55.4 | –
0.1 µM | 51 | 69 | – | – | – | – | – | 0.25
0.3 µM | 24 | 49 | – | – | – | – | – | 0.29
1000 nM | – | – | 4.4 | 4.3 | -0.4 | -0.5 | 5.3 | –
1 µM | 22 | 34 | – | – | – | – | – | 0.25
3 µM | 20 | 26 | – | – | – | – | – | 0.18
10000 nM | – | – | 6 | 1.7 | -0.3 | -0.3 | 2.3 | –

Settings | drug-induced phospholipidosis [%]
A549-ACE2, 0.3 µM, 24 h | -37.6

Settings | drug sensitivity score | relative viability EC50 [nM]
Caco-2 [10] | 34.7 | –
Caco-2 [14] | – | 9.3
Calu-3 [17] | 30.9 | –
Calu-3 [18] | – | 26.7
HepG2 [11] | 32.8 | –
HepG2 [15] | – | 18
U2OS [8] | 34.1 | –
U2OS [12] | – | 16.1
Vero E6 [9] | 22.6 | –
Vero E6 [13] | – | 112

COc1cc(/C=C/C(=O)CC(=O)/C=C/c2ccc(O)c(OC)c2)ccc1O [curcumin]
Settings | SARS-CoV-2 infection rate, [7] [%] | cell count, [6] [%] | cell viability, Caco-2 [3] [%] | cell viability, Calu-3 [16] [%] | cell viability, HepG2 [4] [%] | cell viability, U2OS [1] [%] | cell viability, Vero E6 [2] [%] | morphology score, [5]
1 nM | – | – | 97.6 | 99.9 | 104 | 99.8 | 99.9 | –
10 nM | – | – | 102 | 103 | 102 | 107 | 96.3 | –
100 nM | – | – | 97.9 | 102 | 98.2 | 95.5 | 95.2 | –
0.3 µM | 102 | 89 | – | – | – | – | – | -0.12
1000 nM | – | – | 89.7 | 108 | 101 | 99.2 | 98.2 | –
3 µM | 93 | 107 | – | – | – | – | – | 0.05
10000 nM | – | – | 45.6 | 80.6 | 55.7 | 30 | 82.9 | –
10 µM | 99 | 99 | – | – | – | – | – | 0.27
30 µM | 14 | 64 | – | – | – | – | – | 0.48

drug-induced phospholipidosis [%], A549-ACE2
Settings | 0.3 µM | 0.833333 µM | 3.33333 µM | 6.66667 µM | 10 µM | 30 µM
24 h | 1.25 | 2.99 | 3.97 | 17.5 | 28.2 | 105
48 h | 3.07 | 1.47 | 2.2 | 8.78 | 11 | –
72 h | 3.47 | 0.682 | 1.8 | 7.67 | 8.59 | –

Settings | drug sensitivity score | relative viability EC50 [nM]
Caco-2 [10] | 4.6 | –
Caco-2 [14] | – | 1790
Calu-3 [17] | 0.3 | –
Calu-3 [18] | – | > 10000
HepG2 [11] | 2.2 | –
U2OS [8] | 4 | –
U2OS [12] | – | 3080
Vero E6 [9] | 0.6 | –
Vero E6 [13] | – | > 10000

OCCN1C[C@H](O)[C@@H](O)[C@H](O)[C@H]1CO [miglitol]
Settings | SARS-CoV-2 infection rate, [7] [%] | cell count, [6] [%] | cell viability, Caco-2 [3] [%] | cell viability, Calu-3 [16] [%] | cell viability, HepG2 [4] [%] | cell viability, U2OS [1] [%] | morphology score, [5]
1 nM | – | – | 98.8 | 97.8 | 94.6 | 105 | –
10 nM | – | – | 99.2 | 95.7 | 114 | 99 | –
100 nM | – | – | 96.1 | 95.1 | 89.6 | 102 | –
0.3 µM | 94 | 106 | – | – | – | – | 0.36
1000 nM | – | – | 101 | 110 | 103 | 98.5 | –
3 µM | 102 | 100 | – | – | – | – | 0.01
10000 nM | – | – | 94.7 | 96.2 | 101 | 103 | –
10 µM | 103 | 100 | – | – | – | – | 0.02
30 µM | 111 | 89 | – | – | – | – | -0.07

drug-induced phospholipidosis [%], A549-ACE2
Settings | 0.3 µM | 0.833333 µM | 3.33333 µM | 6.66667 µM | 10 µM | 30 µM
24 h | 3.38 | -3.48 | -1.06 | -1.04 | -2.08 | -1.27
48 h | 2.53 | -2.84 | 1.36 | 1.25 | 2.47 | 2.29
72 h | 3.37 | -2.2 | 1.06 | -0.466 | 0.978 | 2.7

Settings | drug sensitivity score | relative viability EC50 [nM]
Caco-2 [10] | 0 | –
Caco-2 [14] | – | > 10000
Calu-3 [17] | 0 | –
Calu-3 [18] | – | > 10000
HepG2 [11] | 0 | –
HepG2 [15] | – | > 10000
U2OS [8] | 0 | –
U2OS [12] | – | > 10000
